Measured values reported in PubChem BioAssay (NCI).
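Briefly, cells in 96-well plates were exposed to five compound concentrations for 48 h, and endpoints were estimated by linear interpolation. Here, GI50 denotes the concentration required for 50% inhibition of growth. TGI denotes the concentration required for complete inhibition of growth.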

Legend:
Test in all cases: inhibition of tumour cell growth, NCI panel, 48 h; in the data active = GI50 below about 0.43 µM; inactive = the rest
786-0 renal = system: 786-0 renal
A498 renal = system: A498 renal
A549 NSCLC = system: A549 NSCLC
ACHN renal = system: ACHN renal
BT-549 breast = system: BT-549 breast
CAKI-1 renal = system: CAKI-1 renal
CCRF-CEM leukemia = system: CCRF-CEM leukemia
COLO 205 colon = system: COLO 205 colon
DU-145 prostate = system: DU-145 prostate
HCC-2998 colon = system: HCC-2998 colon
HCT-116 colon = system: HCT-116 colon
HCT-15 colon = system: HCT-15 colon
HL-60(TB) leukemia = system: HL-60(TB) leukemia
HOP-62 NSCLC = system: HOP-62 NSCLC
HOP-92 NSCLC = system: HOP-92 NSCLC
HS 578T breast = system: HS 578T breast
HT29 colon = system: HT29 colon
IGROV1 ovarian = system: IGROV1 ovarian
K-562 leukemia = system: K-562 leukemia
KM12 colon = system: KM12 colon
LOX IMVI melanoma = system: LOX IMVI melanoma
M14 melanoma = system: M14 melanoma
MALME-3M melanoma = system: MALME-3M melanoma
MCF7 breast = system: MCF7 breast
MDA-MB-231 breast = system: MDA-MB-231 breast
MDA-MB-435 = system: MDA-MB-435
MOLT-4 leukemia = system: MOLT-4 leukemia
NCI-H226 lung = system: NCI-H226 lung
NCI-H23 lung = system: NCI-H23 lung
NCI-H460 lung = system: NCI-H460 lung
NCI-H522 lung = system: NCI-H522 lung
NCI/ADR-RES ovarian = system: NCI/ADR-RES ovarian
OVCAR-3 ovarian = system: OVCAR-3 ovarian
OVCAR-4 ovarian = system: OVCAR-4 ovarian
OVCAR-5 ovarian = system: OVCAR-5 ovarian
OVCAR-8 ovarian = system: OVCAR-8 ovarian
PC-3 prostate = system: PC-3 prostate
RPMI-8226 leukemia = system: RPMI-8226 leukemia
RXF 393 renal = system: RXF 393 renal
SF-268 CNS = system: SF-268 CNS
SF-295 CNS = system: SF-295 CNS
SF-539 CNS = system: SF-539 CNS
SK-MEL-2 melanoma = system: SK-MEL-2 melanoma
SK-MEL-28 melanoma = system: SK-MEL-28 melanoma
SK-MEL-5 melanoma = system: SK-MEL-5 melanoma
SK-OV-3 ovarian = system: SK-OV-3 ovarian
SN12C renal = system: SN12C renal
SNB-19 CNS = system: SNB-19 CNS
SNB-75 CNS = system: SNB-75 CNS
SR leukemia = system: SR leukemia
SW-620 colon = system: SW-620 colon
T-47D breast = system: T-47D breast
TK-10 renal = system: TK-10 renal
U251 CNS = system: U251 CNS
UACC-257 melanoma = system: UACC-257 melanoma
UACC-62 melanoma = system: UACC-62 melanoma
UO-31 renal = system: UO-31 renal

Cn1c(-c2ccncc2)c(-c2ccc(F)cc2)c2ncccc21
> 25 µM: TGI (786-0 renal) | TGI (A498 renal) | TGI (A549 NSCLC) | TGI (ACHN renal) | TGI (BT-549 breast) | TGI (CAKI-1 renal) | TGI (CCRF-CEM leukemia) | TGI (COLO 205 colon) | TGI (DU-145 prostate) | TGI (HCC-2998 colon) | TGI (HCT-116 colon) | TGI (HCT-15 colon) | TGI (HL-60(TB) leukemia) | TGI (HOP-62 NSCLC) | TGI (HOP-92 NSCLC) | TGI (HS 578T breast) | TGI (HT29 colon) | TGI (IGROV1 ovarian) | TGI (K-562 leukemia) | TGI (KM12 colon) | TGI (LOX IMVI melanoma) | TGI (M14 melanoma) | TGI (MALME-3M melanoma) | TGI (MCF7 breast) | TGI (MDA-MB-231 breast) | TGI (MDA-MB-435) | TGI (MOLT-4 leukemia) | TGI (NCI-H226 lung) | TGI (NCI-H23 lung) | TGI (NCI-H460 lung) | TGI (NCI-H522 lung) | TGI (NCI/ADR-RES ovarian) | TGI (OVCAR-3 ovarian) | TGI (OVCAR-4 ovarian) | TGI (OVCAR-5 ovarian) | TGI (OVCAR-8 ovarian) | TGI (PC-3 prostate) | TGI (RPMI-8226 leukemia) | TGI (RXF 393 renal) | TGI (SF-268 CNS) | TGI (SF-295 CNS) | TGI (SF-539 CNS) | TGI (SK-MEL-2 melanoma) | TGI (SK-MEL-28 melanoma) | TGI (SK-MEL-5 melanoma) | TGI (SK-OV-3 ovarian) | TGI (SN12C renal) | TGI (SNB-19 CNS) | TGI (SNB-75 CNS) | TGI (SR leukemia) | TGI (SW-620 colon) | TGI (T-47D breast) | TGI (TK-10 renal) | TGI (U251 CNS) | TGI (UACC-257 melanoma) | TGI (UACC-62 melanoma) | TGI (UO-31 renal)
inactive: GI50 (786-0 renal) > 25 µM | GI50 (A498 renal) > 14.4 µM | GI50 (A549 NSCLC) > 25 µM | GI50 (ACHN renal) 16.4 µM | GI50 (BT-549 breast) > 25 µM | GI50 (CAKI-1 renal) > 25 µM | GI50 (CCRF-CEM leukemia) > 25 µM | GI50 (COLO 205 colon) > 25 µM | GI50 (DU-145 prostate) > 25 µM | GI50 (HCC-2998 colon) > 25 µM | GI50 (HCT-116 colon) > 25 µM | GI50 (HCT-15 colon) > 25 µM | GI50 (HL-60(TB) leukemia) > 25 µM | GI50 (HOP-62 NSCLC) > 25 µM | GI50 (HOP-92 NSCLC) 7.39 µM | GI50 (HS 578T breast) > 25 µM | GI50 (HT29 colon) > 25 µM | GI50 (IGROV1 ovarian) > 23.1 µM | GI50 (K-562 leukemia) > 25 µM | GI50 (KM12 colon) > 25 µM | GI50 (LOX IMVI melanoma) > 25 µM | GI50 (M14 melanoma) > 25 µM | GI50 (MALME-3M melanoma) > 25 µM | GI50 (MCF7 breast) > 25 µM | GI50 (MDA-MB-231 breast) > 25 µM | GI50 (MDA-MB-435) > 25 µM | GI50 (MOLT-4 leukemia) > 25 µM | GI50 (NCI-H226 lung) > 25 µM | GI50 (NCI-H23 lung) > 25 µM | GI50 (NCI-H460 lung) > 25 µM | GI50 (NCI-H522 lung) > 25 µM | GI50 (NCI/ADR-RES ovarian) > 25 µM | GI50 (OVCAR-3 ovarian) > 25 µM | GI50 (OVCAR-4 ovarian) > 25 µM | GI50 (OVCAR-5 ovarian) > 25 µM | GI50 (OVCAR-8 ovarian) > 25 µM | GI50 (PC-3 prostate) > 25 µM | GI50 (RPMI-8226 leukemia) > 25 µM | GI50 (RXF 393 renal) > 25 µM | GI50 (SF-268 CNS) > 25 µM | GI50 (SF-295 CNS) > 25 µM | GI50 (SF-539 CNS) > 25 µM | GI50 (SK-MEL-2 melanoma) > 25 µM | GI50 (SK-MEL-28 melanoma) > 25 µM | GI50 (SK-MEL-5 melanoma) > 25 µM | GI50 (SK-OV-3 ovarian) > 25 µM | GI50 (SN12C renal) > 25 µM | GI50 (SNB-19 CNS) > 25 µM | GI50 (SNB-75 CNS) > 25 µM | GI50 (SR leukemia) > 25 µM | GI50 (SW-620 colon) > 25 µM | GI50 (T-47D breast) > 25 µM | GI50 (TK-10 renal) 16.4 µM | GI50 (U251 CNS) > 25 µM | GI50 (UACC-257 melanoma) > 25 µM | GI50 (UACC-62 melanoma) > 25 µM | GI50 (UO-31 renal) 10.8 µM
